Source: ChEMBL document CHEMBL1127134, “Synthesis and antibacterial activity of (1R,5R,6R)-2-tert-butyl-6-(1-hydroxyethyl)oxapenem-3-carboxylic acid” (1993)

Assays:
Assay type in all cases: functional
Staphylococcus aureus [1] = test: Minimum inhibitory concentration required for the antibacterial activity against Staphylococcus aureus 21b Belgium
[2] = tested on: Bacteroides thetaiotaomicron; test: Minimum inhibitory concentration required for the antibacterial activity against Bacillus thetaiotaomicron DSM 2079
[3] = tested on: Peptostreptococcus anaerobius; test: Minimum inhibitory concentration required for the antibacterial activity against Peptostrept. anaer. Kr II
Staphylococcus aureus [4] = test: Minimum inhibitory concentration required for the antibacterial activity against Staphylococcus aureus 25463
Clostridium septicum = test: Minimum inhibitory concentration required for the antibacterial activity against Clostridium septicum
Staphylococcus aureus [5] = test: Minimum inhibitory concentration required for the antibacterial activity against Staphylococcus aureus 25455
Staphylococcus aureus [6] = test: Minimum inhibitory concentration required for the antibacterial activity against Staphylococcus aureus 77 Innsbruck
[7] = tested on: Peptostreptococcus anaerobius; test: Minimum inhibitory concentration required for the antibacterial activity against Peptostrept. anaer. 222 I/82
Escherichia coli [8] = test: Minimum inhibitory concentration required for the antibacterial activity against Escherichia coli C165
Bacteroides fragilis [9] = test: Minimum inhibitory concentration required for the antibacterial activity against Bacillus fragilis Kr II
Bacteroides fragilis [10] = test: Minimum inhibitory concentration required for the antibacterial activity against Bacillus fragilis 1560 I/82
Staphylococcus aureus [11] = test: Minimum inhibitory concentration required for the antibacterial activity against Staphylococcus aureus 25085
Staphylococcus aureus [12] = test: Minimum inhibitory concentration required for the antibacterial activity against Staphylococcus aureus 25470
Escherichia coli [13] = test: Minimum inhibitory concentration required for the antibacterial activity against Escherichia coli Neumann
Klebsiella [14] = test: Minimum inhibitory concentration required for the antibacterial activity against Klebsiella 63
Pseudomonas aeruginosa [15] = test: Minimum inhibitory concentration required for the antibacterial activity against Pseudomonas aeruginosa Walter
Providencia rettgeri = test: Minimum inhibitory concentration required for the antibacterial activity against Proteus rettgeri 1007
Pseudomonas aeruginosa [16] = test: Minimum inhibitory concentration required for the antibacterial activity against Pseudomonas aeruginosa 7451
Enterococcus faecalis [17] = test: Minimum inhibitory concentration required for the antibacterial activity against Streptococcus faecalis 27101
Staphylococcus aureus [18] = test: Minimum inhibitory concentration required for the antibacterial activity against Staphylococcus aureus 48N Munchen
Providencia sp. = test: Minimum inhibitory concentration required for the antibacterial activity against Providencia 12012
Klebsiella [19] = test: Minimum inhibitory concentration required for the antibacterial activity against Klebsiella 1852
Staphylococcus aureus [20] = test: Minimum inhibitory concentration required for the antibacterial activity against Staphylococcus aureus 86 Innsbruck
Clostridium perfringens [21] = test: Minimum inhibitory concentration required for the antibacterial activity against Clostridium perfringens 24071
Staphylococcus aureus [22] = test: Minimum inhibitory concentration required for the antibacterial activity against Staphylococcus aureus 25768
Staphylococcus aureus [23] = test: Minimum inhibitory concentration required for the antibacterial activity against Staphylococcus aureus 79B Innsbruck
Staphylococcus aureus [24] = test: Minimum inhibitory concentration required for the antibacterial activity against Staphylococcus aureus 133
Staphylococcus aureus [25] = test: Minimum inhibitory concentration required for the antibacterial activity against Staphylococcus aureus 25697
Staphylococcus aureus [26] = test: Minimum inhibitory concentration required for the antibacterial activity against Staphylococcus aureus 90 Innsbruck
Clostridium perfringens [27] = test: Minimum inhibitory concentration required for the antibacterial activity against Clostridium perfringens DSM 756
Bacteroides fragilis [28] = test: Minimum inhibitory concentration required for the antibacterial activity against Bacillus fragilis Kr 1 TV
[29] = tested on: Parabacteroides distasonis; test: Minimum inhibitory concentration required for the antibacterial activity against Bacillus distasonis Kr
Bacteroides fragilis [30] = test: Minimum inhibitory concentration required for the antibacterial activity against Bacillus fragilis ES 25
Pseudomonas aeruginosa [31] = test: Minimum inhibitory concentration required for the antibacterial activity against Pseudomonas aeruginosa 7053
Bacteroides fragilis [32] = test: Minimum inhibitory concentration required for the antibacterial activity against Bacillus fragilis L 1168 Italien
Bacteroides ovatus = test: Minimum inhibitory concentration required for the antibacterial activity against Bacillus ovatus Heidelberg 32
Proteus vulgaris = test: Minimum inhibitory concentration required for the antibacterial activity against Proteus vulgaris N6
[33] = tested on: Fusobacterium necrophorum; test: Minimum inhibitory concentration required for the antibacterial activity against Sphaerophorus necrophorus Kr
Clostridium perfringens [34] = test: Minimum inhibitory concentration required for the antibacterial activity against Clostridium perfringens 1024027
Enterococcus faecalis [35] = test: Minimum inhibitory concentration required for the antibacterial activity against Streptococcus faecalis 113
Bacteroides fragilis [36] = test: Minimum inhibitory concentration required for the antibacterial activity against Bacillus fragilis 06688
Enterococcus [37] = test: Minimum inhibitory concentration required for the antibacterial activity against Enterococcus 27158
[38] = tested on: Peptoniphilus asaccharolyticus; test: Minimum inhibitory concentration required for the antibacterial activity against Peptococcus asacchar. DSM 20463
[39] = tested on: Peptostreptococcus anaerobius; test: Minimum inhibitory concentration required for the antibacterial activity against Peptostrept. anaer. DSM 20357
Fusobacterium nucleatum = test: Minimum inhibitory concentration required for the antibacterial activity against Fusobacterium nucleatum DSM 20482
Streptococcus pneumoniae = test: Minimum inhibitory concentration required for the antibacterial activity against Streptococcus pneumoniae 4959
Staphylococcus = test: Minimum inhibitory concentration required for the antibacterial activity against Staphylococcus E 25485
Morganella morganii = test: Minimum inhibitory concentration required for the antibacterial activity against Proteus Morganii 932
Clostridium butyricum = test: Minimum inhibitory concentration required for the antibacterial activity against Clostridium butyricum
Escherichia coli [40] = test: Minimum inhibitory concentration required for the antibacterial activity against Escherichia coli T7
Enterobacter cloacae [41] = test: Minimum inhibitory concentration required for the antibacterial activity against Enterobacter cloacae 5744
Bacteroides fragilis [42] = test: Minimum inhibitory concentration required for the antibacterial activity against Bacillus fragilis GA I - 0558 Japan
Escherichia coli [43] = test: Minimum inhibitory concentration required for the antibacterial activity against Escherichia coli F14
Staphylococcus aureus [44] = test: Minimum inhibitory concentration required for the antibacterial activity against Staphylococcus aureus 25464
Klebsiella [45] = test: Minimum inhibitory concentration required for the antibacterial activity against Klebsiella 57USA
Staphylococcus aureus [46] = test: Minimum inhibitory concentration required for the antibacterial activity against Staphylococcus aureus 4978 Israel
Escherichia coli [47] = test: Minimum inhibitory concentration required for the antibacterial activity against Escherichia coli T A261
[48] = tested on: Peptostreptococcus anaerobius; test: Minimum inhibitory concentration required for the antibacterial activity against Peptostrept. anaer. Kr I
Clostridium perfringens [49] = test: Minimum inhibitory concentration required for the antibacterial activity against Clostridium perfringens 24072
Staphylococcus aureus [50] = test: Minimum inhibitory concentration required for the antibacterial activity against Staphylococcus aureus 1756
Escherichia coli [51] = test: Minimum inhibitory concentration required for the antibacterial activity against Escherichia coli 183/58
Enterococcus [52] = test: Minimum inhibitory concentration required for the antibacterial activity against Enterococcus 9790
Enterobacter cloacae [53] = test: Minimum inhibitory concentration required for the antibacterial activity against Enterobacter cloacae 56 US
[54] = tested on: Bacteroides thetaiotaomicron; test: Minimum inhibitory concentration required for the antibacterial activity against Bacillus thetaiotaomicron 235 Munchen
Serratia = test: Minimum inhibitory concentration required for the antibacterial activity against Serratia 16002
Escherichia coli [55] = test: Minimum inhibitory concentration required for the antibacterial activity against Escherichia coli 4322

Structure (SMILES): C[C@@H](O)[C@H]1C(=O)N2C(C(=O)[O-])=C(C(C)(C)C)O[C@H]12.[K+]
- MIC (Staphylococcus aureus [1]): 12.5 µg/mL
- MIC [2]: 1 µg/mL
- MIC [3]: 0.25 µg/mL
- MIC (Staphylococcus aureus [4]): 1.56 µg/mL
- MIC (Clostridium septicum): 2 µg/mL
- MIC (Staphylococcus aureus [5]): 0.12 µg/mL
- MIC (Staphylococcus aureus [6]): ≤ 0.78 µg/mL
- MIC [7]: 2 µg/mL
- MIC (Escherichia coli [8]): 8 µg/mL
- MIC (Bacteroides fragilis [9]): 2 µg/mL
- MIC (Bacteroides fragilis [10]): 2 µg/mL
- MIC (Staphylococcus aureus [11]): 1.56 µg/mL
- MIC (Staphylococcus aureus [12]): 50 µg/mL
- MIC (Escherichia coli [13]): 2 µg/mL
- MIC (Klebsiella [14]): 4 µg/mL
- MIC (Pseudomonas aeruginosa [15]): > 128 µg/mL
- MIC (Providencia rettgeri): 2 µg/mL
- MIC (Pseudomonas aeruginosa [16]): > 128 µg/mL
- MIC (Enterococcus faecalis [17]): 2 µg/mL
- MIC (Staphylococcus aureus [18]): ≤ 0.78 µg/mL
- MIC (Providencia sp.): 4 µg/mL
- MIC (Klebsiella [19]): 16 µg/mL
- MIC (Staphylococcus aureus [20]): ≤ 0.78 µg/mL
- MIC (Clostridium perfringens [21]): 0.5 µg/mL
- MIC (Staphylococcus aureus [22]): ≤ 0.78 µg/mL
- MIC (Staphylococcus aureus [23]): ≤ 0.78 µg/mL
- MIC (Staphylococcus aureus [24]): 0.12 µg/mL
- MIC (Staphylococcus aureus [25]): 1.56 µg/mL
- MIC (Staphylococcus aureus [26]): ≤ 0.78 µg/mL
- MIC (Clostridium perfringens [27]): 1 µg/mL
- MIC (Bacteroides fragilis [28]): 2 µg/mL
- MIC [29]: 1 µg/mL
- MIC (Bacteroides fragilis [30]): 2 µg/mL
- MIC (Pseudomonas aeruginosa [31]): > 128 µg/mL
- MIC (Bacteroides fragilis [32]): 2 µg/mL
- MIC (Bacteroides ovatus): 2 µg/mL
- MIC (Proteus vulgaris): 1 µg/mL
- MIC [33]: 1 µg/mL
- MIC (Clostridium perfringens [34]): 1 µg/mL
- MIC (Enterococcus faecalis [35]): 16 µg/mL
- MIC (Bacteroides fragilis [36]): 2 µg/mL
- MIC (Enterococcus [37]): 16 µg/mL
- MIC [38]: 0.5 µg/mL
- MIC [39]: 1 µg/mL
- MIC (Fusobacterium nucleatum): 0.5 µg/mL
- MIC (Streptococcus pneumoniae): 0.25 µg/mL
- MIC (Staphylococcus): ≤ 0.06 µg/mL
- MIC (Morganella morganii): 2 µg/mL
- MIC (Clostridium butyricum): 2 µg/mL
- MIC (Escherichia coli [40]): 2 µg/mL
- MIC (Enterobacter cloacae [41]): 32 µg/mL
- MIC (Bacteroides fragilis [42]): 2 µg/mL
- MIC (Escherichia coli [43]): 16 µg/mL
- MIC (Staphylococcus aureus [44]): 3.12 µg/mL
- MIC (Klebsiella [45]): 4 µg/mL
- MIC (Staphylococcus aureus [46]): ≤ 0.78 µg/mL
- MIC (Escherichia coli [47]): 2 µg/mL
- MIC [48]: 2 µg/mL
- MIC (Clostridium perfringens [49]): 0.5 µg/mL
- MIC (Staphylococcus aureus [50]): 2 µg/mL
- MIC (Staphylococcus aureus [50]; Staphylococcus aureus, read-out: MIC): 1.56 µg/mL
- MIC (Escherichia coli [51]): 1 µg/mL
- MIC (Enterococcus [52]): 2 µg/mL
- MIC (Enterobacter cloacae [53]): 16 µg/mL
- MIC [54]: 4 µg/mL
- MIC (Serratia): 64 µg/mL
- MIC (Escherichia coli [55]): 2 µg/mL
